The supplement of paper PMC5579334

Columns and labels:
[1] = test system: S1507-2; test: relative IC50 (inflection point of fitted dose-response curve, CellTox-Green cytotoxicity, 72 h; top asymptote may be below 50%); higher = less potent
Procedure, shortened: (§1)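 For 72 h at 37 °C, MPNST cell lines and primary human Schwann cells were exposed in 384-well plates to five 10-fold compound dilutions. CellTox-Green, added before seeding at a final 1:1000 dilution, gave fluorescence from DNA released by disrupted cells. Signals were scaled to vehicle and positive-control wells, cultures failing plate quality control were left out, and four-parameter logistic fits were applied. Relative IC50 and drug sensitivity score were derived from the fits, with IC50 censored at the top concentration.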

[2] = test system: STS26T; test: as above
Procedure, shortened: as §1

[3] = test system: ST8814; test: as above
Procedure, shortened: as §1

[4] = test system: HSC2; test: as above
Procedure, shortened: as §1

[5] = test system: HS-PSS; test: as above
Procedure, shortened: as §1

[6] = test system: HSC1; test: as above
Procedure, shortened: as §1

[7] = test system: STS26T; test: relative IC50 (inflection point of fitted dose-response curve, CellTiter-Glo viability, 72 h; top asymptote may be below 50% inhibition); higher = less potent
Procedure, shortened: (§2)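 MPNST cell lines and primary human Schwann cells were seeded at 750–1000 cells per well into 384-well plates preprinted with each compound at five concentrations in 10-fold steps, then incubated 72 h at 37 °C, 5% CO2. CellTiter-Glo ATP luminescence gave viability, scaled between vehicle and positive-control wells, with duplicates averaged where present. Curves were fitted with a four-parameter logistic model. Percent inhibition refers to the top concentration, while drug sensitivity score and relative IC50, censored at the top concentration, come from these fits.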

[8] = test system: S462; test: as above
Procedure, shortened: as §2

[9] = test system: ST8814; test: as above
Procedure, shortened: as §2

[10] = test system: HSC2; test: as above
Procedure, shortened: as §2

[11] = test system: HS-Sch-2; test: as above
Procedure, shortened: as §2

[12] = test system: HS-PSS; test: as above
Procedure, shortened: as §2

[13] = test system: YST-1; test: as above
Procedure, shortened: as §2

[14] = test system: HSC1; test: as above
Procedure, shortened: as §2

[15] = test system: S1507-2; test: as above
Procedure, shortened: as §2

| SMILES | relative IC50 [1] [µM] | relative IC50 [2] [µM] | relative IC50 [3] [µM] | relative IC50 [4] [µM] | relative IC50 [5] [µM] | relative IC50 [6] [µM] | relative IC50 [7] [µM] | relative IC50 [8] [µM] | relative IC50 [9] [µM] | relative IC50 [10] [µM] | relative IC50 [11] [µM] | relative IC50 [12] [µM] | relative IC50 [13] [µM] | relative IC50 [14] [µM] | relative IC50 [15] [µM] |
| --- | --- | --- | --- | --- | --- | --- | --- | --- | --- | --- | --- | --- | --- | --- | --- |
| CS(=O)(=O)c1ccc(C2=C(c3ccccc3)C(=O)OC2)cc1 [Rofecoxib] | > 10 | > 10 | > 10 | > 10 | > 10 | > 10 | > 10 | > 10 | > 10 | > 10 | > 10 | > 10 | > 10 | > 10 | – |
| CC(C)NC[C@@H](C(=O)N1CCN(c2ncnc3c2[C@H](C)C[C@H]3O)CC1)c1ccc(Cl)cc1 [GDC-0068] | > 10 | > 10 | > 10 | > 10 | – | – | 0.544 | – | – | > 10 | – | – | – | – | 2.06 |
| N#Cc1ccc(COC[C@H]2O[C@@H](n3c(NCc4ccc(Cl)c(Cl)c4)nc4c(N)ncnc43)[C@H](O)[C@@H]2O)cc1 | > 10 | – | > 10 | > 10 | > 10 | > 10 | 1.1 | – | > 10 | 0.261 | > 10 | – | 1.24 | 0.784 | > 10 |
| Cc1c(Cn2c(C)nc3c(C(=O)O)cc(N4CCOCC4)cc32)cccc1C(F)(F)F | > 10 | > 10 | > 10 | > 10 | > 10 | > 10 | – | > 10 | – | > 10 | > 10 | – | > 10 | > 10 | 0.931 |
| O=C(Nc1cccnc1)N1CCC(Cc2cccc(Oc3ccc(C(F)(F)F)cn3)c2)CC1 [PF-3845] | > 10 | > 10 | > 10 | – | > 10 | > 10 | – | – | – | 1.43 | 3.07 | 1.41 | 3.52 | 1.52 | > 10 |
| CC1(C)CCC(c2ccc(Cl)cc2)=C(CN2CCN(c3ccc(C(=O)NS(=O)(=O)c4ccc(N[C@H](CCN5CCOCC5)CSc5ccccc5)c(S(=O)(=O)C(F)(F)F)c4)cc3)CC2)C1 [Navitoclax] | 0.608 | – | 1.5 | 0.983 | > 10 | 1.54 | – | – | – | 1.12 | 0.547 | > 10 | 0.471 | – | 0.582 |
| CC(=O)Nc1cccc(-n2c(=O)n(C3CC3)c(=O)c3c(Nc4ccc(I)cc4F)n(C)c(=O)c(C)c32)c1 [Trametinib] | 0.0458 | – | 0.0463 | – | > 0.25 | > 0.25 | 0.00759 | 0.0099 | 0.016 | 0.0185 | 0.0486 | 0.0281 | > 0.25 | 0.0106 | 0.0152 |
| CN1CCN(CCOc2cc(OC3CCOCC3)c3c(Nc4c(Cl)ccc5c4OCO5)ncnc3c2)CC1 [Saracatinib] | 0.0995 | – | 1.55 | 8.11 | – | > 10 | 1.11 | 0.818 | 1.32 | 1.53 | 2.81 | 1.57 | – | 0.452 | 1.53 |
| Cc1ccc(-c2cc(C(F)(F)F)nn2-c2ccc(S(N)(=O)=O)cc2)cc1 [Celecoxib] | > 10 | > 10 | > 10 | > 10 | > 10 | > 10 | > 10 | > 10 | > 10 | > 10 | > 10 | > 10 | > 10 | – | > 10 |
| CC[C@H](CO)Nc1nc(NCc2ccccc2)c2ncn(C(C)C)c2n1 [Seliciclib] | > 10 | – | > 10 | > 10 | – | > 10 | – | 3.61 | > 10 | 3.99 | – | 1.67 | > 10 | – | > 10 |
| Cc1nc(C(=O)NCC(=O)O)c(O)c2ccc(Oc3ccccc3)cc12 [FG-4592] | > 10 | > 10 | > 10 | > 10 | > 10 | > 10 | > 10 | > 10 | > 10 | – | 2.47 | 1.21 | > 10 | – | > 10 |
| COc1cc(F)c(F)c(Nc2ccc(I)cc2F)c1NS(=O)(=O)C1(C[C@H](O)CO)CC1 [Refametinib] | 1.86 | – | 1.6 | – | 3.27 | > 10 | 0.306 | 0.382 | 0.451 | 0.443 | 1.62 | 1.8 | – | 0.849 | 0.362 |
| CC(C)C(=O)Nc1ccc([N+](=O)[O-])c(C(F)(F)F)c1 [Flutamide] | > 10 | > 10 | > 10 | > 10 | > 10 | > 10 | – | > 10 | > 10 | > 10 | > 10 | – | > 10 | – | > 10 |
| Nc1nccc(-c2c(-c3ccc(F)cc3)ncn2C2CCCCC2)n1 | > 10 | – | > 10 | > 10 | – | > 10 | > 10 | > 10 | – | > 10 | 3.78 | – | 0.8 | > 10 | > 10 |
| CC1(C)NC(=O)N(c2ccc([N+](=O)[O-])c(C(F)(F)F)c2)C1=O [Nilutamide] | > 10 | > 10 | > 10 | > 10 | > 10 | > 10 | > 10 | > 10 | > 10 | > 10 | – | – | > 10 | – | > 10 |
